Test [1] addresses His6-TEV-PDGFRβ (557-1016) (Homo sapiens (Human), UniProt P09619). The test is described as follows: PDGFRβ HTRF Assay. It counts as biochemical. The following applies: read-out: PDGFR HTRF IC50. The essentials:
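Human PDGFRβ (557-1016) pre-incubated with compound for 30 min at RT in pH 7.5 HEPES/MgCl2/EGTA/Brij-35/DTT buffer. Reaction started with ATP and TK-biotin peptide, run 3 h at RT, then quenched with EDTA-containing Eu-cryptate antibody/streptavidin-XL665. HTRF 665/620 nm ratio read after 60 min; percent inhibition relative to DMSO and 10 μM imatinib controls.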
For orientation: TR-FRET usually uses a lanthanide donor and a delayed reading to cut background.

The target in test [2] is PDGFRβ (Rattus norvegicus (Rat), UniProt Q05030). Description: PDGFRβ Cellular Assay (PDGFRb P-Y751 HTRF in A10 cells stimulated with PDGF-BB). The class given is cell-based. The essentials:
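Rat A10 cells, plated overnight, were treated with compound for 3 hours, then stimulated with PDGF-BB (working stock 100 ng/mL in 10% FBS medium). After lysis, PDGFRβ P-Y751 was detected by HTRF.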

Our source for the IC50 values is patent publication US20240109917A1 (ACTELION PHARMACEUTICALS LTD, priority 2020, published 2024).

Read-outs that look alike come from different tables or passages of the source.

PDGFRβ, sequence (Q05030 32-1097): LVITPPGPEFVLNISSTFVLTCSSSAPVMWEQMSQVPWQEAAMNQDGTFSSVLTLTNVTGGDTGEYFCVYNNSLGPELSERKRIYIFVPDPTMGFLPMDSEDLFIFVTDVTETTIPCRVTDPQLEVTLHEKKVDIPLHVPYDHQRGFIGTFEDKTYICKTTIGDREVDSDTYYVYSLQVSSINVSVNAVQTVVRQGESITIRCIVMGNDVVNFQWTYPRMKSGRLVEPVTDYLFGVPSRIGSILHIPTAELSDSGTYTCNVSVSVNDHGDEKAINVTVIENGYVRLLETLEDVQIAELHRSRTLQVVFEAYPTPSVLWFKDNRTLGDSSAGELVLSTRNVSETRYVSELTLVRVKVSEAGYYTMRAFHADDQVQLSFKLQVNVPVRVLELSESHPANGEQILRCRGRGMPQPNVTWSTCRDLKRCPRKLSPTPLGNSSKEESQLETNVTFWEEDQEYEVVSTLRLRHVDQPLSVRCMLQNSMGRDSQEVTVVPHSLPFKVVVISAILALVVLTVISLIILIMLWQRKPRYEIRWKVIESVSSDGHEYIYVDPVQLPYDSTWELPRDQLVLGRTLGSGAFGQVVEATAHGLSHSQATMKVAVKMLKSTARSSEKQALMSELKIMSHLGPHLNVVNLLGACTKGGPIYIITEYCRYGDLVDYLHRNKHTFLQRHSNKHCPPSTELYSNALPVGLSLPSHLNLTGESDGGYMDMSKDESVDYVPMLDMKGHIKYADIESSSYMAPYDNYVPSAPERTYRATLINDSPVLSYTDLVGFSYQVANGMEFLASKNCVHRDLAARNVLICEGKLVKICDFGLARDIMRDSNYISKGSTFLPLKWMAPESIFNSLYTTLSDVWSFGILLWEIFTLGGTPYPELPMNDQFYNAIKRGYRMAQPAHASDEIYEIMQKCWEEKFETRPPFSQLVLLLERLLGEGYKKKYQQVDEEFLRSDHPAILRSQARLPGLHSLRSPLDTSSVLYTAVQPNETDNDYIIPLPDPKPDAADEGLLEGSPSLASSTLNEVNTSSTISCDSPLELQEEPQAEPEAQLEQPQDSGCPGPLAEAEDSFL
His6-TEV-PDGFRβ (557-1016), sequence (P09619 557-1016): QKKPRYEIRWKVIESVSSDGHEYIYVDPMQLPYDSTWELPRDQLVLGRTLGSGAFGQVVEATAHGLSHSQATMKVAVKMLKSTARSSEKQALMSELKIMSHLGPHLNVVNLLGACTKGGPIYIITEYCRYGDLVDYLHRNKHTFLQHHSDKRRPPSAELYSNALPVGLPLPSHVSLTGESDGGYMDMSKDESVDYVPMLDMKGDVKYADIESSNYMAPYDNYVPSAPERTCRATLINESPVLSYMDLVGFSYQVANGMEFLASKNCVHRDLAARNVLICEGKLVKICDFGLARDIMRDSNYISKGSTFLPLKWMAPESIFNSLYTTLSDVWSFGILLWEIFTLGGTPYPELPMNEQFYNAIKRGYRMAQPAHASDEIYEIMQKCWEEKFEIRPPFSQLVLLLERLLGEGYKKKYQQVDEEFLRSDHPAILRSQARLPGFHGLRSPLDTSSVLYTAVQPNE

The term IC50 denotes the concentration needed to halve the response being measured. On to `Cc1ncc(NC(=O)CN2CC(C)(C)C2)cc1NC(=O)c1cnn2cc(-c3ccc(C4(O)COC4)cc3)sc12` [Example 272, N-(5-(2-(3,3-dimethylazetidin-1-yl)acetamido)-2-methylpyridin-3-yl)-2-(4-(3-hydroxyoxetan-3-yl)phenyl)pyrazolo[5,1-b]thiazole-7-carboxamide], for which the IC50 turned out to be 0.2 nM in test [1] and 5.6 nM in test [2] (read-out: PDGFR Cellular IC50).
For the molecule `Cc1ncc(NC(=O)CN2CCCC3(COC3)C2)cc1NC(=O)c1cnn2cc(-c3cnn(C)c3)sc12` [Example 24, N-(5-(2-(2-oxa-6-azaspiro[3.5]nonan-6-yl)acetamido)-2-methylpyridin-3-yl)-2-(1-methyl-1H-pyrazol-4-yl)pyrazolo[5,1-b]thiazole-7-carboxamide], the IC50 in test [1] came out at 0.7 nM; in test [2] (read-out: PDGFR Cellular IC50) it was 31.8 nM.
Taken in the same sequence, the figures for `Cc1ncc(NC(=O)CC23CCCN2CCC3)cc1NC(=O)c1cnn2cc(-c3cnn(C)c3)sc12` [Example 302, 2-(1-methyl-1H-pyrazol-4-yl)-N-(2-methyl-5-(2-(tetrahydro-1H-pyrrolizin-7a(5H)-yl)acetamido)pyridin-3-yl)pyrazolo[5,1-b]thiazole-7-carboxamide] were 1.2 nM and 7 nM.
For the molecule `Cc1ncc(NC(=O)CN(C)C2CCOCC2)cc1NC(=O)c1cnn2cc(-c3cnn(C(C)C#N)c3)sc12` (stereo not shown) [Example 297, 2-(1-(1-cyanoethyl)-1H-pyrazol-4-yl)-N-(2-methyl-5-(2-(methyl(tetrahydro-2H-pyran-4-yl)amino)acetamido)pyridin-3-yl)pyrazolo[5,1-b]thiazole-7-carboxamide], the figures for the IC50 in test [1] and in test [2] (read-out: PDGFR Cellular IC50) were 0.7 nM and 98 nM, respectively.
For `Cc1ncc(NC(=O)CN2CC(C)(C)C2)cc1NC(=O)c1cnn2cc(-c3cnn(CC#N)c3)sc12` [Example 266, 2-(1-(cyanomethyl)-1H-pyrazol-4-yl)-N-(5-(2-(3,3-dimethylazetidin-1-yl)acetamido)-2-methylpyridin-3-yl)pyrazolo[5,1-b]thiazole-7-carboxamide], in that order: 0.7 nM and 36.2 nM.
For `COc1ncccc1-c1cn2ncc(C(=O)Nc3cc(NC(=O)CN4CCOCC45CCC5)cnc3C)c2s1` [Example 310, N-(5-(2-(8-oxa-5-azaspiro[3.5]nonan-5-yl)acetamido)-2-methylpyridin-3-yl)-2-(2-methoxypyridin-3-yl)pyrazolo[5,1-b]thiazole-7-carboxamide], the IC50 came out at 0.3 nM in test [1] and 3.3 nM in test [2] (read-out: PDGFR Cellular IC50).
Take `COCCn1cc(-c2cn3ncc(C(=O)Nc4cc(NC(=O)CN5CC(C)(C)C5)cnc4C)c3s2)cn1` [Example 261, N-(5-(2-(3,3-dimethylazetidin-1-yl)acetamido)-2-methylpyridin-3-yl)-2-(1-(2-methoxyethyl)-1H-pyrazol-4-yl)pyrazolo[5,1-b]thiazole-7-carboxamide]: the 50% inhibitory concentration (IC50) in test [1] is 0.4 nM; in test [2] (read-out: PDGFR Cellular IC50), 4.2 nM.
Taken in the same sequence, the figures for `Cc1ncc(NC(=O)[C@@H]2CCCN3CCCC[C@H]23)cc1NC(=O)c1cnn2cc(-c3cnn(C)c3)sc12` [Example 308, 2-(1-methyl-1H-pyrazol-4-yl)-N-(2-methyl-5-((1R,9aR)-octahydro-2H-quinolizine-1-carboxamido)pyridin-3-yl)pyrazolo[5,1-b]thiazole-7-carboxamide] were 20.9 nM and 311 nM.
In the case of `COCCn1cc(-c2cn3ncc(C(=O)Nc4cc(NC(=O)CN5CCC6(CC6)C5)cnc4C)c3s2)cn1` [Example 326, N-(5-(2-(5-azaspiro[2.4]heptan-5-yl)acetamido)-2-methylpyridin-3-yl)-2-(1-(2-methoxyethyl)-1H-pyrazol-4-yl)pyrazolo[5,1-b]thiazole-7-carboxamide], the results for the IC50 in test [1] and in test [2] (PDGFR Cellular IC50) were 0.4 nM and 3 nM, respectively.
On to `Cc1ncc(NC(=O)CN2CC(C)(C)C2)cc1NC(=O)c1cnn2cc(-c3cnn(-c4cccnc4)c3)sc12` [Example 289, N-(5-(2-(3,3-dimethylazetidin-1-yl)acetamido)-2-methylpyridin-3-yl)-2-(1-(pyridin-3-yl)-1H-pyrazol-4-yl)pyrazolo[5,1-b]thiazole-7-carboxamide], for which the IC50 in test [1] was 0.3 nM; in test [2] (read-out: PDGFR Cellular IC50), 4.4 nM.
Taken in the same sequence, the figures for `Cc1ncc(NC(=O)CN2CC(C)(C)C2)cc1NC(=O)c1cnn2cc(-c3cnn(CC4CC4)c3)sc12` [Example 270, 2-(1-(cyclopropylmethyl)-1H-pyrazol-4-yl)-N-(5-(2-(3,3-dimethylazetidin-1-yl)acetamido)-2-methylpyridin-3-yl)pyrazolo[5,1-b]thiazole-7-carboxamide] were 0.4 nM and 4.8 nM.
Turning to `Cc1ncc(NC(=O)CN2CC(C)(C)C2)cc1NC(=O)c1cnn2cc(-c3cnn(C4CS(=O)(=O)C4)c3)sc12` [Example 262, N-(5-(2-(3,3-dimethylazetidin-1-yl)acetamido)-2-methylpyridin-3-yl)-2-(1-(1,1-dioxidothietan-3-yl)-1H-pyrazol-4-yl)pyrazolo[5,1-b]thiazole-7-carboxamide], the values for the IC50 in test [1] and in test [2] (read-out: PDGFR Cellular IC50) were 0.5 nM and 36.9 nM, respectively.
For `Cc1ncc(NC(=O)CN2CCCC23COC3)cc1NC(=O)c1cnn2cc(-c3cnn(C)c3)sc12` [Example 20, N-(5-(2-(2-oxa-5-azaspiro[3.4]octan-5-yl)acetamido)-2-methyl-pyridin-3-yl)-2-(1-methyl-1H-pyrazol-4-yl)pyrazolo[5,1-b]thiazole-7-carboxamide], the values for the IC50 in test [1] and in test [2] (read-out: PDGFR Cellular IC50) were 0.7 nM and 35.9 nM, respectively.
Taken in the same sequence, the figures for `COc1ncccc1-c1cn2ncc(C(=O)Nc3cc(NC(=O)CN4CCCC4)cnc3C)c2s1` [Example 313, 2-(2-methoxypyridin-3-yl)-N-(2-methyl-5-(2-(pyrrolidin-1-yl)acetamido)pyridin-3-yl)pyrazolo[5,1-b]thiazole-7-carboxamide] were 0.2 nM and 2.8 nM.
Turning to `Cc1ncc(NC(=O)CN2CC(C)(C)C2)cc1NC(=O)c1cnn2cc(-c3cnn(CC4COC4)c3)sc12` [Example 263, N-(5-(2-(3,3-dimethylazetidin-1-yl)acetamido)-2-methylpyridin-3-yl)-2-(1-(oxetan-3-ylmethyl)-1H-pyrazol-4-yl)pyrazolo[5,1-b]thiazole-7-carboxamide], the IC50 in test [1] worked out at 0.6 nM; in test [2] (read-out: PDGFR Cellular IC50) it was 13.9 nM.
On to `Cc1ncc(NC(=O)CN(C)C2CCOCC2)cc1NC(=O)c1cnn2cc(-c3cnn(C(F)F)c3)sc12` [Example 295, 2-(1-(difluoromethyl)-1H-pyrazol-4-yl)-N-(2-methyl-5-(2-(methyl(tetrahydro-2H-pyran-4-yl)amino)acetamido)pyridin-3-yl)pyrazolo[5,1-b]thiazole-7-carboxamide], for which the 50% inhibitory concentration (IC50) worked out at 0.7 nM in test [1] and 21.3 nM in test [2] (read-out: PDGFR Cellular IC50).
Taken in the same sequence, the figures for `Cc1ncc(NC(=O)C[C@@H]2CCCCN2C(C)C)cc1NC(=O)c1cnn2cc(-c3cnn(C)c3)sc12` [Example 305, (S)—N-(5-(2-(1-isopropylpiperidin-2-yl)acetamido)-2-methylpyridin-3-yl)-2-(1-methyl-1H-pyrazol-4-yl)pyrazolo[5,1-b]thiazole-7-carboxamide] were 2.1 nM and 308 nM.
As to `COCCn1cc(-c2cn3ncc(C(=O)Nc4cc(NC(=O)CN5CCCC5(C)C)cnc4C)c3s2)cn1` [Example 329, N-(5-(2-(2,2-dimethylpyrrolidin-1-yl)acetamido)-2-methylpyridin-3-yl)-2-(1-(2-methoxyethyl)-1H-pyrazol-4-yl)pyrazolo[5,1-b]thiazole-7-carboxamide], the IC50 is 0.5 nM in test [1] and 4.4 nM in test [2] (PDGFR Cellular IC50).
`COc1ncccc1-c1cn2ncc(C(=O)Nc3cc(NC(=O)OCC(C)N4CCCC4)cnc3C)c2s1` (stereo not shown) [Example 255, 2-(pyrrolidin-1-yl)propyl (5-(2-(2-methoxypyridin-3-yl)pyrazolo[5,1-b]thiazole-7-carboxamido)-6-methylpyridin-3-yl)carbamate]: the IC50 in test [1] is 0.2 nM; in test [2] (read-out: PDGFR Cellular IC50), 9.3 nM.
For `COc1ncccc1-c1cn2ncc(C(=O)Nc3cc(NC(=O)C4CCCCN4C(C)C)cnc3C)c2s1` (stereo not shown) [Example 315, N-(5-(1-isopropylpiperidine-2-carboxamido)-2-methylpyridin-3-yl)-2-(2-methoxypyridin-3-yl)pyrazolo[5,1-b]thiazole-7-carboxamide], in that order: 0.3 nM and 5.4 nM.
For `COc1ncccc1-c1cn2ncc(C(=O)Nc3cc(NC(=O)CN4CCC5(CCOC5)C4)cnc3C)c2s1` (stereo not shown) [Example 320, N-(5-(2-(2-oxa-7-azaspiro[4.4]nonan-7-yl)acetamido)-2-methylpyridin-3-yl)-2-(2-methoxypyridin-3-yl)pyrazolo[5,1-b]thiazole-7-carboxamide], in that order: 0.2 nM and 1.6 nM.
Regarding `CNC(=O)c1cc(-c2cn3ncc(C(=O)Nc4cc(NC(=O)CN5CC(C)(C)C5)cnc4C)c3s2)ccn1` [Example 274, N-(5-(2-(3,3-dimethylazetidin-1-yl)acetamido)-2-methylpyridin-3-yl)-2-(2-(methylcarbamoyl)pyridin-4-yl)pyrazolo[5,1-b]thiazole-7-carboxamide], the concentration for half-maximal inhibition (IC50) in test [1] was found to be 1 nM; in test [2] (read-out: PDGFR Cellular IC50), 51.8 nM.
For the molecule `Cc1ncc(NC(=O)CN2CC(C)(C)C2)cc1NC(=O)c1cnn2cc(-c3cc[nH]c3)sc12` [Example 285, N-(5-(2-(3,3-dimethylazetidin-1-yl)acetamido)-2-methylpyridin-3-yl)-2-(1H-pyrrol-3-yl)pyrazolo[5,1-b]thiazole-7-carboxamide], the values for the IC50 in test [1] and in test [2] (read-out: PDGFR Cellular IC50) were 0.1 nM and 1.2 nM, respectively.
